Where two headings read alike, the source gives them in different places.
Experiments:
[1] = tested on: herpes simplex virus 1 (HSV-1) (KOS); test: microbe, parasite or virus in culture; assay type: cell-based; settings: read-out: EC50 HSV-1 (KOS)
[2] = tested on: varicella-zoster virus (VZV) TK− (07/1); test: microbe, parasite or virus in culture; assay type: cell-based; settings: Human alphaherpesvirus 3, HEL, read-out: EC50 VZV TK− (07/1)
[3] = tested on: human cytomegalovirus (HCMV) (AD-169); test: microbe, parasite or virus in culture; assay type: cell-based; settings: read-out: EC50 HCMV (AD-169)
[4] = tested on: Feline Herpes Virus; test: organism not typed; assay type: cell-based; settings: read-out: EC50 Feline Herpes Virus
[5] = tested on: HSV-1 (KOS ACV) TK−; test: microbe, parasite or virus in culture; assay type: cell-based, herpes simplex virus 1
[6] = tested on: HEL cell cultures
[7] = in vitro; settings: human
[8] = tested on: varicella-zoster virus (VZV) TK+ (OKA); test: microbe, parasite or virus in culture; assay type: cell-based; settings: read-out: EC50 VZV TK+ (OKA)
[9] = tested on: HSV-1, HSV-2, HSV-1 (TK−), VV, FHV; assay type: cell-based
[10] = tested on: human cytomegalovirus (HCMV) (Davis); test: microbe, parasite or virus in culture; assay type: cell-based; settings: read-out: EC50 HCMV (Davis)
[11] = tested on: Vaccinia Virus; test: microbe, parasite or virus in culture; assay type: cell-based; settings: read-out: EC50 Vaccinia Virus
[12] = tested on: HSV-2 (G); test: microbe, parasite or virus in culture; assay type: cell-based, herpes simplex virus 2; settings: read-out: EC50 HSV-2 (G)
[13] = tested on: HEL cells; settings: read-out: Cytotoxicity CC50; concentration reducing cell growth by 50%; HCMV/VZV table
[14] = Human betaherpesvirus 5, AD169, HEL
[15] = Human alphaherpesvirus 1, read-out: EC50 HSV-1 (KOS ACV) TK−
[16] = read-out: EC50 HSV-1 (KOS ACV) TK−

| Compound | EC50 ([1]; Human alphaherpesvirus 1, HEL) | EC50 [2] | EC50 [3, 14] | EC50 [4] | EC50 [5, 15] | Cytotoxicity MCC ([6]; human) | CC50 at 3 days [7] | EC50 ([8]; Human alphaherpesvirus 3, HEL) | EC50 ([10]; Human betaherpesvirus 5, HEL) | EC50 ([11]; Orthopoxvirus vaccinia, HEL) | EC50 ([12]; Human alphaherpesvirus 2, HEL) | also measured |
| --- | --- | --- | --- | --- | --- | --- | --- | --- | --- | --- | --- | --- |
| CC(=O)OCC(=CCP(=O)(OCOC(=O)C(C)(C)C)OCOC(=O)C(C)(C)C)COc1cc(N)nc(N)n1 (mixture of isomers) [Compound (4), [[(Z/E)-3-(acetoxymethyl)-4-(2,6-diaminopyrimidin-4-yl)oxy-but-2′-enyl]-(2,2-dimethylpropanoyloxymethoxy)phosphoryl]oxymethyl 2,2-dimethylpropanoate] | 0.6 µM | 0.12 µM | 8.56 µM | > 100 µM | 0.6 µM | 100 µM | 2.02 µM | 0.14 µM | 4.06 µM | 2.9 µM | 1.1 µM | activity level against HSV-1, HSV-2, HSV-1 (TK−), VV, FHV [9]: micromolar and sub-micromolar activities |
| CCCCCCCCCCCCCCCCOCCCOP(=O)(CC=C(COC(C)=O)COc1cc(Cl)nc(N)n1)OCOC(=O)OC(C)C (mixture of isomers) [Compound (8), [(E/Z)-2′-[(2-amino-6-chloro-pyrimidin-4-yl)oxymethyl]-4-[3-hexadecoxypropoxy(isopropoxycarbonyloxymethoxy)phosphoryl]but-2′-enyl]acetate] |  |  |  | > 100 µM |  |  |  |  |  |  |  | EC50 [1]: > 100 µM; EC50 [3]: > 20 µM; EC50 [5, 16]: > 100 µM; Cytotoxicity MCC [6]: 100 µM; EC50 [8]: 48.9 µM; CC50 [13]: 5.01 µM; EC50 [10]: 13.1 µM; EC50 [11]: > 100 µM; EC50 [12]: > 100 µM |
| Nc1nc2c(ncn2COCCO)c(=O)[nH]1 [Acyclovir, reference compound] |  |  | 0.4 µM |  |  |  |  |  | 250 µM | > 100 µM |  | CC50 [7]: 134 ± 10 µM; CC50 ([7]; Cytotoxicity CC50): > 100 µM |
| O=c1[nH]c(=O)n([C@H]2C[C@H](O)[C@@H](CO)O2)cc1/C=C/Br [Brivudine, reference compound] |  | 117 µM | 0.08 µM |  |  | >100 µM |  | 0.01 µM | 250 µM | 22 µM |  | CC50 [7]: 339 µM; CC50 ([7]; Cytotoxicity CC50): > 100 µM |
| CC(C)(C)C(=O)OCOP(=O)(C/C=C/COc1cc(N)nc(N)n1)OCOC(=O)C(C)(C)C [Compound (1), [[(E)-4-(2,6-diaminopyrimidin-4-yl)oxybut-2′-enyl]-(2,2-dimethylpropanoyloxymethoxy)phosphoryl]oxymethyl 2,2-dimethylpropanoate] | 13.4 µM | 2.32 µM | 44.7 µM | > 100 µM | 13.4 µM | >100 µM | 5.1 µM | 2.04 µM | 44.7 µM | 32.5 µM | 13.4 µM | activity level against HSV-1, HSV-2, HSV-1 (TK−), VV, FHV [9]: micromolar and sub-micromolar activities |
| CCCCCCCCCCCCCCCCOCCCOP(=O)(C/C=C/COc1cc(N)nc(N)n1)OCOC(=O)OC(C)C (stereo not shown) [Compound (2), [[(E)-4-(2,6-diaminopyrimidin-4-yl)oxybut-2′-enyl]-(3-hexadecoxypropoxy)phosphoryl]oxymethyl isopropyl carbonate] |  |  |  | > 100 µM |  |  |  |  |  |  |  | EC50 [1]: > 100 µM; EC50 [3]: 7.08 µM; EC50 [5, 16]: > 100 µM; Cytotoxicity MCC [6]: >100 µM; EC50 [8]: 0.17 µM; CC50 [13]: 14.5 µM; EC50 [10]: 7.26 µM; EC50 [11]: > 100 µM; EC50 [12]: > 100 µM |
| CC(C)OC(=O)OCOP(=O)(C/C=C/COc1cc(N)nc(N)n1)OCOC(=O)OC(C)C [Compound (3), [[(E)-4-(2,6-diaminopyrimidin-4-yl)oxybut-2′-enyl]-(isopropoxycarbonyloxymethoxy)phosphoryl]oxymethyl isopropyl carbonate] | 3.75 µM | 1.25 µM | 44.7 µM | > 100 µM | 5.75 µM | >100 µM | 99 µM | 0.86 µM | 36.6 µM | > 100 µM | 1.85 µM | activity level against HSV-1, HSV-2, HSV-1 (TK−), VV, FHV [9]: micromolar and sub-micromolar activities |
| CC(=O)OC/C(=C\CP(=O)(OCOC(=O)OC(C)C)OCOC(=O)OC(C)C)COc1cc(N)nc(N)n1 [Compound (6), [(Z)-4-[bis(isopropoxycarbonyloxymethoxy)phosphoryl]-2-[(2,6-diaminopyrimidin-4-yl)oxymethyl]but-2-enyl]acetate] | 0.6 ± 0.2 µM | 0.22 µM | > 20 µM | > 100 µM | 0.4 µM | >100 µM | 15.4 µM | 0.089 µM | 49.7 µM | 4.1 ± 2.4 µM | 0.35 ± 0.05 µM |  |
| CC(C)(C)C(=O)OCOP(=O)(/C=C/COc1cc(N)nc(N)n1)OCOC(=O)C(C)(C)C [Compound (9), [[(E)-3-(2,6-diaminopyrimidin-4-yl)oxyprop-1-enyl]-(2,2-dimethyl-propanoyloxymethoxy)phosphoryl]oxymethyl 2,2-dimethylpropanoate] | > 100 µM | > 100 µM | > 100 µM | > 100 µM | > 100 µM | >100 µM |  | 76.5 µM | > 100 µM | > 100 µM | > 100 µM |  |
| CC(C)(C)C(=O)OCOP(=O)(CC/C=C/COc1cc(N)nc(N)n1)OCOC(=O)C(C)(C)C [Compound (10), [[(E)-5-(2,6-diaminopyrimidin-4-yl)oxypent-3-enyl]-(2,2-dimethyl-propanoyloxymethoxy)phosphoryl]oxymethyl 2,2-dimethylpropanoate] | > 100 µM | 24.5 µM | > 100 µM | > 100 µM | > 100 µM | 100 µM |  | 34.2 µM | > 100 µM | > 100 µM | > 100 µM |  |
| C/C(=C\CP(=O)(OCOC(=O)C(C)(C)C)OCOC(=O)C(C)(C)C)COc1cc(N)nc(N)n1 [Compound (11), [[(E)-4-(2,6-diaminopyrimidin-4-yl)oxy-3-methyl-but-2-enyl]-(2,2-dimethyl-propanoyloxymethoxy)phosphoryl]oxymethyl 2,2-dimethylpropanoate] | > 100 µM | 49.3 µM | > 100 µM | > 100 µM | 51.5 µM | >100 µM |  | 51.5 µM | > 100 µM | 49.3 µM | > 100 µM |  |
| CC(C)(C)C(=O)OCOP(=O)(CCCCOc1cc(N)nc(N)n1)OCOC(=O)C(C)(C)C [Compound (12)] | 39.5 µM | 11 µM | 44.7 µM | > 100 µM | 42 µM | >100 µM | 54.9 µM | 11.3 µM | > 20 µM | > 100 µM | 39.5 µM |  |
| Nc1nc(O)c2ncn(COC(CO)CO)c2n1 [Ganciclovir, reference compound] |  |  |  | 1.4 µM |  | >100 µM |  |  |  | > 100 µM | 0.06 µM | CC50 ([7]; Cytotoxicity CC50): > 100 µM |
| [(E/Z)-2-[[2-[bis(tert-butoxycarbonyl)amino]-6-methoxy-pyrimidin-4-yl]oxymethyl]-4-[3-hexadecoxypropoxy(isopropoxycarbonyloxymethoxy)phosphoryl]but-2′-enyl]acetate [Compound (7)] |  |  |  | > 100 µM |  |  |  |  |  |  |  | EC50 [1]: > 100 µM; EC50 [3]: > 20 µM; EC50 [5, 16]: > 100 µM; Cytotoxicity MCC [6]: 100 µM; EC50 [8]: > 20 µM; CC50 [13]: 1.29 µM; EC50 [10]: 8.94 µM; EC50 [11]: > 100 µM; EC50 [12]: > 100 µM |

— patent US11603380B2 (Centre national de la recherche scientifique, priority 2018, dated 2023)
